Experiments:
ryegrass [1] = system: ryegrass
Source text: For example, when converting from overseeded ryegrass turf to perennial bermudagrass in the spring season, sublethal doses of Sapphire herbicide (or other ryegrass-removal herbicides) are applied to cause the ryegrass to slowly fade away. […] In other aspects, a method of enhancing color and quality of a turf including the cool-season turfgrass species comprises co-administering Simazine with Penoxsulam or other ryegrass-removal herbicides to the turf comprising the cool-season turfgrass species. In such implementations, a sub-lethal dosage application of Simazine in relation to the desirable cool-season turfgrass species is co-administered with Penoxsulam or other ryegrass-removal herbicides.

annual bluegrass = assay: Test turf in a cool high-altitude climate; assay type: in vivo, Poa annua
Procedure: FIG. 10 is a photograph of a test turf in a cool high-altitude climate.
(§1) Unless noted otherwise, the data and results shown herein are from trials performed in Phoenix, AZ and would be representative of application of the methods described herein in a hot climate. However, Simazine is effective in management of annual bluegrass infestation in a turf comprising cool-season turfgrass species in cool, high-altitude climates as well as in hot climates (see FIG. 10). The tests were conducted according to standards required by the U.S. Environmental Protection Agency for evaluating herbicides.

[2] = system: annual bluegrass (Poa annua); assay: Suppression of annual bluegrass flowers and seedheads in ryegrass turf; assay type: in vivo
Source text: The test turfs shown in FIGS. 9A and 9B are ryegrass turfs infested with Poa annua that received two applications of Simazine at a rate of 0.25 lb AI/A per application.
However, applying a sub-lethal dosage of Simazine in relation to annual bluegrass still improves the quality of the turf comprising cool-season turfgrasses. Using applications that are sub-lethal to annual bluegrass (at least in the near term), simazine treatment suppresses the production of annual bluegrass flowers and seedheads rendering the turf more desirable.
The #1 plot in FIG. 8A was treated with Simazine (0.25 lb AI/A). […] The other areas were untreated and the annual bluegrass there produced prolific flowers and seedheads. FIGS. 9A and 9B show multiple applications made to ryegrass turf infested with Poa annua.

ryegrass [3] = assay: Safety to ryegrass seeded after treatment of bermudagrass turf; assay type: in vivo; settings: applied four days prior to planting ryegrass; 43 days after seeding
Source text: Simazine may also be applied during the transition of a turf from warm-season turfgrass species to cool-season turfgrass species. Simazine is not injurious to desired cool-season turfgrasses when applied prior to planting seed. FIG. 11A show soon-to-be-dormant bermudagrass turf treated with simazine four days prior to planting ryegrass into the turf.

bermudagrass = assay: Tolerance of bermudagrass turf; assay type: in vivo; settings: single application 0.5 lb AI/A
Source text: (§2) Bermudagrass and seashore Paspalum (Paspalum vaginatum) are both warm-season turfgrasses. However, when one species is desired, often the other species is found to contaminate the desired species. When seashore Paspalum contaminates bermudagrass, the result is undesirable. It was discovered that Simazine may be used to selectively remove the seashore Paspalum because bermudagrass is much more tolerant of Simazine than is seashore Paspalum.

[4] = system: annual bluegrass (Poa annua); assay: Field trial: control of annual bluegrass in ryegrass turf; assay type: in vivo
Procedure: Unless noted otherwise, the data and results shown herein are from trials performed in Phoenix, AZ and would be representative of application of the methods described herein in a hot climate. […] The tests were conducted according to standards required by the U.S. Environmental Protection Agency for evaluating herbicides.
FIG. 1A depicts a ryegrass/annual bluegrass turf test area that was subjected to four treatments. Initial treatments were made in December. Treatment area #1 received a low application rate (0.25 lb AI/A) of Simazine followed by a second low rate application one month later. Treatment area #2 received two medium rate (0.5 lb AI/A) applications on the same schedule as treatment area #1. Treatment area #3 received a single medium rate application. Treatment area #4 received no Simazine applications. The test area was evaluated 90 days after the first application as shown in FIG. 1A and the quantification data is presented in FIG. 1B.
FIG. 2B represents a single application at 0.75 lb AI/A using the 90DF formulation. […] FIG. 3A compares single application of application rates of 0.25 lb AI/A, 0.5 lb AI/A, 0.75 lb AI/A, and 1.0 lb AI/A at 86 days after treatment. FIG. 3B quantifies the percentage of annual bluegrass coverage on the test turf at 79 days after treatment.

Poa annua = assay: Field trial: control of Poa annua in turf comprising cool-season turfgrasses, multiple low-rate applications; assay type: in vivo; settings: multiple applications at rates as low as 0.05 lbs AI/A; no photo documentation
Procedure: as §1
However, multiple applications of lower rates may provide greater safety to the ryegrass than a higher rate single application even though both may effectively control the annual bluegrass (FIGS. 4A-6B). Multiple applications of Simazine at lower rates reduce the risk of overdosing the desirable cool-season turfgrass due to application overlaps, which occur often during turf treatments.

[5] = system: annual bluegrass (Poa annua); assay: Field trial: control of annual bluegrass in bentgrass turf; assay type: in vivo
Source text: Bentgrass turfgrass species are more sensitive to Simazine application than ryegrass. […] While there was still a large presence of annual bluegrass at 13 days after treatment, the patch of annual bluegrass is visibly ill (FIG. 7A).

[6] = system: annual bluegrass (Poa annua); assay: Co-administration with ryegrass-weakening herbicides A and B on ryegrass turf infested with Poa annua; assay type: in vivo; settings: Simazine mixed with herbicide A or B; 60 days after treatment
Source text: Herbicides A and B were applied at low dosages to weaken the existing ryegrass turf which was infested with Poa annua. Poa annua is not sensitive to either A or B. As shown in the untreated section, Poa annua would otherwise proliferate during the herbicidal treatment at 60 days after treatment, but co-administration with Simazine prevents Poa annua proliferation during the herbicidal treatment.
Because annual bluegrass is not sensitive to certain herbicides used for weakening existing ryegrass, treatment with such herbicides may not be beneficial in removing the turf as the annual bluegrass would proliferate in the area. However, mixing Simazine with herbicides improves the results of the herbicidal treatments in turf removal. […] Annual bluegrass is not sensitive to either herbicide.

[7] = system: seashore Paspalum (Paspalum vaginatum); assay: Selective control of seashore Paspalum in bermudagrass turf; assay type: in vivo; settings: single application 0.5 lb AI/A
Source text: as §2

[8] = system: cool-season turfgrass species; assay: Margin of safety on desired cool-season turfgrass species; settings: in vivo
[9] = ryegrass turf, two applications of 0.25 lb AI/A (FIGS. 9A, 9B)

SMILES: COc1cnc(OC)n2nc(NS(=O)(=O)c3c(OCC(F)F)cccc3C(F)(F)F)nc12 [Sapphire, 2-(2,2-difluoroethoxy)-N-(5,8-dimethoxy-[1,2,4]triazolo[1,5-c]pyrimidin-2-yl)-6-(trifluoromethyl)benzenesulfonamide]
- colour and quality of ryegrass during conversion to bermudagrass (ryegrass [1]; sublethal doses of ryegrass-removal herbicide alone): degrades the color and quality of the ryegrass

SMILES: CCNc1nc(Cl)nc(NCC)n1 [Simazine, 6-chloro-2-N,4-N-diethyl-1,3,5-triazine-2,4-diamine]
- turf colour compared to untreated turf (annual bluegrass): darker green color
- control of annual bluegrass infestation (annual bluegrass; effective dose specific to the climate): control of annual bluegrass infestation
- flowering and seedhead production in surviving annual bluegrass ([2]; plot #1 FIG. 8A, 0.25 lb AI/A): suppressed
- kill of annual bluegrass ([2]; plot #1 FIG. 8A, 0.25 lb AI/A): only a portion of the annual bluegrass was killed
- formation of flowers and seedheads [2, 9]: greatly suppressed
- kill of Poa annua [2, 9]: did not kill the Poa annua
- effect on young ryegrass (ryegrass [3]): did not affect the young ryegrass
- damage to bermudagrass (bermudagrass): not damaging bermudagrass
- colour of treated ryegrass versus untreated (ryegrass [1]; single application, 1.0 and 0.75 lb AI/A (FIGS. 2A, 2B)): deeper green color
- colour and quality of ryegrass turf during conversion to bermudagrass (ryegrass [1]; sub-lethal Simazine about 0.25 AI/A included with Sapphire treatment): enhances the color and quality of the ryegrass turf
- selective control of annual bluegrass ([4]; another site, single application 1.0 lb AI/A, 4 L formulation): selective control of annual bluegrass
- annual bluegrass coverage on the test turf ([4]; single application 0.25 lb AI/A, 79 days after treatment, untreated over 80%): 50%
- visual presence of annual bluegrass within the treated turf ([4]; single application 1.0 lb AI/A, 79 days after treatment): effectively removed visual presence of any annual bluegrass
- control of Poa annua (Poa annua): successfully controlled Poa annua
- condition of annual bluegrass patch ([5]; 0.5 lb AI/A, 13 days after treatment): visibly ill
- coverage of the test area with annual bluegrass ([5]; 0.5 lb AI/A, 38 days after treatment): significantly reduced
- control of annual bluegrass infestation ([5]; application at 0.5 lb AI/A): effectively controlled annual bluegrass infestation
- annual bluegrass proliferation during herbicidal treatment [6]: without allowing annual bluegrass to proliferate
- control of seashore Paspalum [7]: eradicate seashore Paspalum

SMILES: CCNc1nc(Cl)nc(NC(C)C)n1 [atrazine]
- margin of safety on desired cool-season turfgrass species, compared with Simazine [8]: lesser margin of safety

Reference: patent US20240315246A1, “METHOD OF USING SIMAZINE FOR CONTROLLING ANNUAL BLUEGRASS IN COOL SEASON-TURFGRASSES” (priority 2023, published 2024)
